In patent publication US8901126B2, “Substituted imidazo[1,5-A]quinoxalin-4-ones are useful for preventing or treating storage dysfunction, voiding dysfunction and bladder/urethral diseases” (priority 2010, dated 2014):
Structures can show the parent of a compound that is named as a salt.

Tests used:
PDE9 = biological target: T1, PDE9 (Homo sapiens, UniProt O76083); assay: PDE9-inhibiting activity (SPA, 3H-cGMP degradation); assay type: biochemical; conditions: PDE9-inhibiting activity (IC50 values), cGMP 1 μM, 30° C.
T1 construct: made in house
Method: The PDE9 used in the present experiment was expressed/purified by the method as in, for example, Guipponi et al., and Fisher et., al. (Fisher, D. A., et al., J. Biol. Chem., 273: pp. 15559-15564 (1998), Guipponi, M., et al., Hum. Genet., 103: pp. 386-392 (1998)).
(2) Evaluation of PDE9-Inhibiting Activity
The PDE9-inhibiting activity was measured by the following method. That is, to a buffer solution containing tris(hydroxymethyl)aminomethane-hydrochloric acid (40 mM, pH 8.0), magnesium chloride (5 mM), and 2-mercaptoethanol (4 mM) were added cGMP (1 μM) and ^3H-cGMP (0.33 μCi/ml) to give a substrate buffer solution. A test substance solution and an enzyme solution which had been adjusted to an optimal concentration were added thereto to perform a reaction at 30° C. The enzyme reaction was stopped by the addition of Scintillation Proximity Assay (SPA) Beads (Perkin Elmer, USA) containing 5 mM 3-isobutyl-1-methylxanthine (IBMX). For the enzyme activity, the amount of 5′-GMP, which is a reaction degradation product bound to SPA beads, was measured with a TopCount microplate reader (Hewlett Packard, USA).
The inhibitory rate was calculated by taking the radioactivity of the control containing no test substance as (A), taking the radioactivity of the blank containing no enzyme as (B), and taking the radioactivity of the test substance as (C), and using the following equation. Inhibitory rate=100−{(C)−(B)/(A)−(B)}×100(%)

T1 sequence (O76083 whole entry): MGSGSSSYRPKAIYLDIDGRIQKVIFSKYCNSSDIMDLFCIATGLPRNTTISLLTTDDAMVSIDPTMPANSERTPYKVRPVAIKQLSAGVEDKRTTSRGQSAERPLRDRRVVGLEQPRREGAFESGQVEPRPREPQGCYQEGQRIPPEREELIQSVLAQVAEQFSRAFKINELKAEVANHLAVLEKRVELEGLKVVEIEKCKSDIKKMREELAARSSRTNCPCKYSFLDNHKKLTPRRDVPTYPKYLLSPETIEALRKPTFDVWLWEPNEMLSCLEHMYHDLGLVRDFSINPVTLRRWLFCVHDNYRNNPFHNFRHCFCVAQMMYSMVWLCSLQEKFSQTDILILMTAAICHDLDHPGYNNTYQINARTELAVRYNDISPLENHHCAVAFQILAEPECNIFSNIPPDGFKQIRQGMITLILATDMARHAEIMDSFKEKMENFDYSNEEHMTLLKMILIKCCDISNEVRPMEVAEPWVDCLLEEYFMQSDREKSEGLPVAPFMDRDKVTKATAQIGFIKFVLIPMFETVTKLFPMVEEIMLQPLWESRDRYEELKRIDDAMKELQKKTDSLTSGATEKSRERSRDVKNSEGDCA

IC50 (PDE9) | melting point | SMILES
14 nM | – | COCc1cccc2c1CN(C(=O)c1cc3[nH]c(=O)c4cnc(C5CCOCC5)n4c3cc1C)C2 [Example 14]
16 nM | – | CCc1cnc2c(c1)CCN2C(=O)c1cc2[nH]c(=O)c3cnc(C4CCOC4)n3c2cc1COC (single isomer, unassigned) [Example 40(b)]
137 nM | – | COc1cc2c(cn1)N(C(=O)c1cc3[nH]c(=O)c4cnc(C5CCOC5)n4c3cc1C)CC2 (single isomer, unassigned) [Example 27(a)]
2.6 nM | 231 to 234 °C | Cc1cc2c(cc1C(=O)N1CC(C)c3cc(Cl)ccc31)[nH]c(=O)c1nnc(C3CCOCC3)n12.Cl (stereo not shown) [Example 32]
152 nM | – | Cc1cnc2c(c1)CCN2C(=O)c1cc2[nH]c(=O)c3cnc(C4CCOC4)n3c2cc1C (single isomer, unassigned) [Example 26(a)]
0.81 nM | – | Cc1cc2c(cc1C(=O)N1CC(C)(C)c3cc(Br)cnc31)[nH]c(=O)c1nnc(C3CCOCC3)n12 [Example 33]
56 nM | 197 to 199 °C | Cc1cc2c(cc1C(=O)N1CCc3cc(F)ccc31)[nH]c(=O)c1cnc([C@@H]3CCC[C@@H]3O)n12 [Example 22]
51 nM | 275 to 277 °C | COc1cc2c(cn1)N(C(=O)c1cc3[nH]c(=O)c4cnc(C5CCOCC5)n4c3cc1F)CC2 [Example 2, 8-fluoro-7-[(5-methoxy-2,3-dihydro-1H-pyrrolo[2,3-c]pyridin-1-yl)carbonyl]-1-(tetrahydro-2H-pyran-4-yl)imidazo[1,5-a]quinoxalin-4(5H)-one]
38 nM | – | Cc1cc2c(cc1C(=O)N1CCc3cc(F)c(F)cc31)[nH]c(=O)c1cnc(C3CCOC3)n12 (single isomer, unassigned) [Example 30(a)]
13 nM | 170 to 172 °C | COCc1cc2c(cc1C(=O)N1CCc3cc(Cl)ccc31)[nH]c(=O)c1nnc(C3CCC3)n12.Cl [Example 46]
53 nM | – | CCc1cc2c(cc1C(=O)N1Cc3c(F)ccc(F)c3C1)[nH]c(=O)c1nnc(C3CCC3)n12 [Example 37]
7.5 nM | – | COC1CC(c2nnc3c(=O)[nH]c4cc(C(=O)N5CCc6cc(Br)cnc65)c(C)cc4n23)C1 (stereo not shown) [Example 34]
0.8 nM | 270 to 275 °C (dec.) | O=C(c1cc2[nH]c(=O)c3cnc(C4CCOCC4)n3c2cc1Cl)N1CCc2cc(Br)cnc21 [Example 48]
19 nM | – | CCc1cc2c(cc1C(=O)N1CCc3cc(Br)cnc31)[nH]c(=O)c1nnc(C3CCC3)n12 [Example 35]
28 nM | – | Cc1cc2c(cc1C(=O)N1Cc3c(F)ccc(F)c3C1)[nH]c(=O)c1nnc(CC3CC3)n12 [Example 38]
62 nM | 296 to 303 °C | Cc1cc2c(cc1C(=O)N1CCc3cc(Br)cnc31)[nH]c(=O)c1cnc([C@@H]3CCC[C@@H]3O)n12 (racemic) [Example 5, 7-[(5-bromo-2,3-dihydro-1H-pyrrolo[2,3-b]pyridin-1-yl)carbonyl]-1-(cis-2-hydroxycyclopentyl)-8-methylimidazo[1,5-a]quinoxalin-4(5H)-one]
77 nM | – | CCc1cnc2c(c1)CCN2C(=O)c1cc2[nH]c(=O)c3cnc(C4CCOC4)n3c2cc1COC (single isomer, unassigned) [Example 40(a)]
15 nM | – | Cc1cc2c(cc1C(=O)N1CCc3cc(Br)cnc31)[nH]c(=O)c1cnc(C3CCOC3)n12 (stereo not shown) [Example 29]
139 nM | – | CCc1cnc2c(c1)CCN2C(=O)c1cc2[nH]c(=O)c3cnc(C4CCOC4)n3c2cc1C (single isomer, unassigned) [Example 28(a)]
45 nM | – | Cc1cnc2c(c1)CCN2C(=O)c1cc2[nH]c(=O)c3cnc(C4CCOC4)n3c2cc1C (single isomer, unassigned) [Example 26(b)]
2.1 nM | 300 to 305 °C (dec.) | Cc1cc2c(cc1C(=O)N1CCc3cc(Br)cnc31)[nH]c(=O)c1cnc(C3CCCOC3)n12 (stereo not shown) [Example 47]
14 nM | 331 to 333 °C | CCc1cnc2c(c1)CCN2C(=O)c1cc2[nH]c(=O)c3cnc(C4CCOCC4)n3c2cc1C [Example 13]
3.5 nM | 321 to 324 °C (dec.) | O=C(c1cc2[nH]c(=O)c3cnc(C4CCOCC4)n3c2cc1OCC1CCOC1)N1CCc2cc(Br)cnc21 (stereo not shown) [Example 1, 7-[(5-bromo-2,3-dihydro-1H-pyrrolo[2,3-b]pyridin-1-yl)carbonyl]-8-(tetrahydrofuran-3-ylmethoxy)-1-(tetrahydro-2H-pyran-4-yl)imidazo[1,5-a]quinoxalin-4(5H)-one]
17 nM | 268 to 271 °C | Cc1cc2c(cc1C(=O)N1CCc3cc(Br)cnc31)[nH]c(=O)c1nnc(CC3CC3)n12 [Example 24]

IC50 (PDE9) | melting point | SMILES
– | 173 to 175 °C | CCc1cnc2c(c1)CCN2C(=O)c1cc2[nH]c(=O)c3nnc(CC4CC4)n3c2cc1C (as salt: hydrochloride) [Example 6, 1-(cyclopropylmethyl)-7-[(5-ethyl-2,3-dihydro-11′-pyrrolo[2,3-b]pyridin-1-yl)carbonyl]-8-methyl[1,2,4]triazolo[4,3-a]quinoxalin-4(5H)-one dihydrochloride]
52 nM | – | Cc1cc2c(cc1C(=O)N1Cc3c(F)ccc(F)c3C1)[nH]c(=O)c1cnc(C3CCOC3)n12 (single isomer, unassigned) [Example 39(a)]
52 nM | – | CCc1cnc2c(c1)CCN2C(=O)c1cc2[nH]c(=O)c3cnc(C4CCOC4)n3c2cc1C (stereo not shown) [Example 28]
5.4 nM | – | CCc1cc2c(cc1C(=O)N1CCc3cc(Br)cnc31)[nH]c(=O)c1nnc(CC3CC3)n12 [Example 18]
53 nM | – | Cc1cc2c(cc1C(=O)N1Cc3c(F)ccc(F)c3C1)[nH]c(=O)c1nnc(C3CCC3)n12 [Example 36]
84 nM | 241 to 243 °C | COc1cc2c(cn1)N(C(=O)c1cc3[nH]c(=O)c4cnc(C5CCOC5)n4c3cc1C)CC2 (stereo not shown) [Example 27]
14 nM | – | Cc1cc2c(cc1C(=O)N1Cc3c(F)ccc(F)c3C1)[nH]c(=O)c1cnc(C3CCOC3)n12 (single isomer, unassigned) [Example 39(b)]
24 nM | – | Cc1cc2c(cc1C(=O)N1CCc3cc(Br)cnc31)[nH]c(=O)c1cnc(C3CCOC3)n12 (single isomer, unassigned) [Example 29(a)]
2.1 nM | 324 to 326 °C | Cc1cc2c(cc1C(=O)N1c3ccc(Cl)cc3CC1C)[nH]c(=O)c1nnc(C3CCOCC3)n12.Cl (stereo not shown) [Example 7]
25 nM | – | COCc1cc2c(cc1C(=O)N1CCc3cc(Br)cnc31)[nH]c(=O)c1cnc(C3CCOC3)n12 (single isomer, unassigned) [Example 43(a)]
62 nM | – | COCc1cc2c(cc1C(=O)N1CCc3cc(OC)ncc31)[nH]c(=O)c1cnc(C3CCOC3)n12 (single isomer, unassigned; (-)) [Example 4(a), (−)-7-[(5-methoxy-2,3-dihydro-1H-pyrrolo[2,3-c]pyridin-1-yl)carbonyl]-8-(methoxymethyl)-1-(tetrahydrofuran-3-yl)imidazo[1,5-a]quinoxalin-4(5H)-one dihydrochloride]
4.5 nM | 177 to 180 °C | Cl.O=C(c1cc2[nH]c(=O)c3cnc(C4CCOCC4)n3c2cc1OCC1CCOC1)N1CCc2cc(F)ccc21 (stereo not shown) [Example 10]
3.3 nM | – | CCc1cc2c(cc1C(=O)N1CCc3cc(Cl)ccc31)[nH]c(=O)c1nnc(CC3CC3)n12 [Example 16]
31 nM | – | Cc1cc2c(cc1C(=O)N1Cc3cccc(CN(C)C)c3C1)[nH]c(=O)c1cnc(C3CCOCC3)n12 [Example 11]
18 nM | 174 to 176 °C | COCc1cc2c(cc1C(=O)N1CCc3cc(Br)cnc31)[nH]c(=O)c1nnc(C3CCC3)n12 [Example 41]
1.3 nM | – | COCC1Cc2cc(Cl)ccc2N1C(=O)c1cc2[nH]c(=O)c3nnc(C4CCOCC4)n3c2cc1C (stereo not shown) [Example 9]
64 nM | – | CCc1cnc2c(c1)CCN2C(=O)c1cc2[nH]c(=O)c3nnc(CC4CC4)n3c2cc1C [Example 6, 1-(cyclopropylmethyl)-7-[(5-ethyl-2,3-dihydro-11′-pyrrolo[2,3-b]pyridin-1-yl)carbonyl]-8-methyl[1,2,4]triazolo[4,3-a]quinoxalin-4(5H)-one dihydrochloride]
3.6 nM | – | O=C(c1cc2[nH]c(=O)c3cnc(C4CCOCC4)n3c2cc1F)N1CCc2cc(Cl)ccc21 [Example 12]
11 nM | – | Cc1cc2c(cc1C(=O)N1CCc3cc(F)c(F)cc31)[nH]c(=O)c1cnc(C3CCOC3)n12 (stereo not shown) [Example 30]
47 nM | – | CCc1cnc2c(c1)CCN2C(=O)c1cc2[nH]c(=O)c3cnc(C4CCOC4)n3c2cc1C (single isomer, unassigned) [Example 28(b)]
26 nM | – | COCc1cc2c(cc1C(=O)N1Cc3c(F)ccc(F)c3C1)[nH]c(=O)c1cnc(C3CCOC3)n12 (single isomer, unassigned) [Example 45(a)]
62 nM | – | COCc1cc2c(cc1C(=O)N1CCc3cc(C)cnc31)[nH]c(=O)c1cnc(C3CCOC3)n12 (single isomer, unassigned) [Example 25(a)]
8.5 nM | – | CCc1cc2c(cc1C(=O)N1CCc3cc(F)ccc31)[nH]c(=O)c1nnc(CC3CC3)n12 [Example 17]
